Assay results from patent US20140243322A1, “BIVALENT BROMODOMAIN LIGANDS, AND METHODS OF USING SAME” (Coferon, Inc., priority 2011, published 2014).
pEC50: −log10 of the molar value.

Legend:
Myc mRNA = test: Inhibition of Myc expression (Myc mRNA) in MV4-11 cells; format: cell-based; conditions: Homo sapiens, 4 hours of treatment, read-out: EC50 range, Myc mRNA normalized to GAPDH mRNA
Description: Inhibition of Myc Expression.

[1] = target: N-terminal His 6-tagged BRD2 tandem protein; test: Surface Plasmon Resonance (SPR) off-rate assay; format: binding; conditions: immobilized BRD2 tandem protein; saturating concentrations injected 5 minutes, buffer 20 minutes
Procedure: Surface Plasmon Resonance (SPR) Assay.
Off rates were determined using surface plasmon resonance measurements on a Bio-Rad ProteOn XPR 36 instrument. N-terminal His 6-tagged BRD2 tandem protein was immobilized by capturing on a ProteOn HTG sensor chip and then cross coupled to the surface using standard amine reactive chemistry. Selected bivalent inhibitors were injected on to the chip surface at saturating concentrations for 5 minutes followed by buffer for 20 minutes. The resulting sensorgrams were analyzed using the ProteOn XPR software to determine off-rates. Off rates for selected bivalent inhibitors were >100× slower when binding to the BRD2 tandem protein compared to the monovalent pharmacophores or compared to the bivalents binding to monobromodomain containing protein constructs.

MV4-11 cells = test: Inhibition of MV4-11 cell proliferation (Cell-Titer Glo); format: cell-based; conditions: Homo sapiens, 72 hours of growth, read-out: GI50 range
Procedure: Inhibition of MV4-11 Cell Proliferation.
MV4-11 cells (5000 cells in 50 μl volumes) in growth medium containing 10% FBS and 1% Pen/Strep were plated and grown overnight in 96 well plates and treated the next day with 3-fold dilutions of test compounds or with DMSO vehicle. After 72 hours of growth, 30 ul of Cell-Titer Glo reagent (Promega) was added to the wells and the plates incubated for 30 minutes. Luminescence was measured on a Spectramax M5 plate reader and GI50 values were calculated for each test compound.

With `CCNC(=O)C[C@@H]1N=C(c2ccc(Cl)cc2)c2cc(OCCCNC(=O)C[C@@H]3N=C(c4ccc(Cl)cc4)c4cc(OC)ccc4-n4c(C)nnc43)ccc2-n2c(C)nnc21` [BRD-B-02, N-(3-(((4S)-6-(4-chlorophenyl)-4-(2-(ethylamino)-2-oxoethyl)-1-methyl-4H-benzo[f][1,2,4]triazolo[4,3-a][1,4]diazepin-8-yl)oxy)propyl)-2-((4S)-6-(4-chlorophenyl)-8-methoxy-1-methyl-4H-benzo[f][1,2,4]triazolo[4,3-a][1,4]diazepin-4-yl)acetamide] the pEC50 (Myc mRNA) was 4.52 to 7.00, the “kd (off rate)” value [1] was 0.00011 s⁻¹ and the GI50 (MV4-11 cells) was 0.1 to 30 nM.
`CCNC(=O)C[C@@H]1N=C(c2ccc(Cl)cc2)c2cc(OCCOCCNC(=O)C[C@@H]3N=C(c4ccc(Cl)cc4)c4cc(OC)ccc4-n4c(C)nnc43)ccc2-n2c(C)nnc21` [BRD-B-03, N-(2-(2-(((4S)-6-(4-chlorophenyl)-4-(2-(ethylamino)-2-oxoethyl)-1-methyl-4H-benzo[f][1,2,4]triazolo[4,3-a][1,4]diazepin-8-yl)oxy)ethoxy)ethyl)-2-((4S)-6-(4-chlorophenyl)-8-methoxy-1-methyl-4H-benzo[f][1,2,4]triazolo[4,3-a][1,4]diazepin-4-yl)acetamide] was tested, and the “kd (off rate)” value [1] was 0.00011 s⁻¹ and the GI50 (MV4-11 cells) was 30 to 100 nM.
In the case of `CCNC(=O)C[C@@H]1N=C(c2ccc(Cl)cc2)c2cc(OCCOCCOCCOCCOCCOCCOCCNC(=O)C[C@@H]3N=C(c4ccc(Cl)cc4)c4cc(OC)ccc4-n4c(C)nnc43)ccc2-n2c(C)nnc21` [BRD-B-14, N-(20-(((4S)-6-(4-chlorophenyl)-4-(2-(ethylamino)-2-oxoethyl)-1-methyl-4H-benzo[f][1,2,4]triazolo[4,3-a][1,4]diazepin-8-yl)oxy)-3,6,9,12,15,18-hexaoxaicosyl)-2-((4S)-6-(4-chlorophenyl)-8-methoxy-1-methyl-4H-benzo[f][1,2,4]triazolo[4,3-a][1,4]diazepin-4-yl)acetamide], the pEC50 (Myc mRNA) was 7.52 to 10.00, the “kd (off rate)” value [1] was 7.5e-05 s⁻¹ and the GI50 (MV4-11 cells) was 0.1 to 30 nM.
With `CCNC(=O)C[C@@H]1N=C(c2ccc(Cl)cc2)c2cc(OCCOCCOCCOCCOCCOCCOCCOCCNC(=O)C[C@@H]3N=C(c4ccc(Cl)cc4)c4cc(OC)ccc4-n4c(C)nnc43)ccc2-n2c(C)nnc21` [BRD-B-15, N-(23-(((4S)-6-(4-chlorophenyl)-4-(2-(ethylamino)-2-oxoethyl)-1-methyl-4H-benzo[f][1,2,4]triazolo[4,3-a][1,4]diazepin-8-yl)oxy)-3,6,9,12,15,18,21-heptaoxatricosyl)-2-((4S)-6-(4-chlorophenyl)-8-methoxy-1-methyl-4H-benzo[f][1,2,4]triazolo[4,3-a][1,4]diazepin-4-yl)acetamide] the pEC50 (Myc mRNA) was 4.52 to 7.00, the “kd (off rate)” value [1] was 8.3e-05 s⁻¹ and the GI50 (MV4-11 cells) was 0.1 to 30 nM.
`CCNC(=O)C[C@@H]1N=C(c2ccc(Cl)cc2)c2cc(OCCOCCOCCOCCOCCOCCOCCOCCOCCNC(=O)C[C@@H]3N=C(c4ccc(Cl)cc4)c4cc(OC)ccc4-n4c(C)nnc43)ccc2-n2c(C)nnc21` [BRD-B-20, N-(26-(((4S)-6-(4-chlorophenyl)-4-(2-(ethylamino)-2-oxoethyl)-1-methyl-4H-benzo[f][1,2,4]triazolo[4,3-a][1,4]diazepin-8-yl)oxy)-3,6,9,12,15,18,21,24-octaoxahexacosyl)-2-((4S)-6-(4-chlorophenyl)-8-methoxy-1-methyl-4H-benzo[f][1,2,4]triazolo[4,3-a][1,4]diazepin-4-yl)acetamide] was tested, and the pEC50 (Myc mRNA) was 7.52 to 10.00 and the GI50 (MV4-11 cells) was 0.1 to 30 nM.
For `COc1ccc2c(c1)C(c1ccc(Cl)cc1)=N[C@@H](CC(=O)NCCOCCOCCOCCOCCOCCOCCOCCOCCNC(=O)C[C@@H]1N=C(c3ccc(Cl)cc3)c3cc(OC)ccc3-n3c(C)nnc31)c1nnc(C)n1-2` [BRD-B-22, (S)—N,N′-(3,6,9,12,15,18,21,24-octaoxahexacosane-1,26-diyl)bis(2-((4S)-6-(4-chlorophenyl)-8-methoxy-1-methyl-4H-benzo[1,2,4]triazolo[4,3-a][1,4]diazepin-4-yl)acetamide)], the pEC50 (Myc mRNA) was 7.00 to 7.52 and the GI50 (MV4-11 cells) was 0.1 to 30 nM.
`COc1ccc2c(c1)C(c1ccc(Cl)cc1)=N[C@@H](CC(=O)NCCOCCOCCOCCOCCOCCOCCOCCOCCOCCNC(=O)C[C@@H]1N=C(c3ccc(Cl)cc3)c3cc(OC)ccc3-n3c(C)nnc31)c1nnc(C)n1-2` [BRD-B-23, (S)—N,N′-(3,6,9,12,15,18,21,24,27-nonaoxanonacosane-1,29-diyl)bis(2-((4S)-6-(4-chlorophenyl)-8-methoxy-1-methyl-4H-benzo[f][1,2,4]triazolo[4,3-a][1,4]diazepin-4-yl)acetamide)] was tested, and the pEC50 (Myc mRNA) was 7.00 to 7.52 and the GI50 (MV4-11 cells) was 0.1 to 30 nM.
